Laboratory results taken from ChEMBL document CHEMBL4295262, “Evaluation of the utility of stem-cell derived cardiomyocytes for drug proarrhythmic potential” (2019).

Key:
Settings in all cases: human, ipsc-cm
[1] = (§1) Electrical activity assay on cell lines treated with a given drug. DMSO was used as a vehicle and a control, unblinded dofetilide was used as a control.
[2] = as §1; format: ADME, cell-based; design: FPDc: unit not given here
[3] = as §1; format: cell-based; design: APDc: unit not given here
[4] = as §1; remark: listed apart in the source
[5] = as §1; remark: listed apart in the source
[6] = 0.0001 µM, concentration (um) 0.0001 uM
[7] = 0.001 µM, concentration (um) 0.001 uM
[8] = 0.01 µM, concentration (um) 0.01 uM
[9] = 0.1 µM, concentration (um) 0.1 uM
[10] = 3.169 µM, concentration (um) 3.16912 uM
[11] = 10.01 µM, concentration (um) 10.0144 uM
[12] = 31.65 µM, concentration (um) 31.6456 uM
[13] = 100 µM, concentration (um) 100 uM

**Q.** Which results are given for CCCCCCCN(CC)CCCC(O)c1ccc(NS(C)(=O)=O)cc1 (stereo not drawn) [IBUTILIDE]?
**A.** FPD measurement ([1]; 0.0001 µM): 56.72 FPDc; FPDc ([1]; 0.0001 µM): 56.72; FPD measurement ([1]; 0.001 µM): 63.97 FPDc; FPDc ([1]; 0.001 µM): 63.97; FPD measurement ([1]; 0.01 µM): More Than Half The Wells Had A Quiescence Event Or Fpdc Readings Of 0; FPDc ([1]; 0.01 µM): More Than Half The Wells Had A Quiescence Event Or Fpdc Readings Of 0; FPD measurement ([1]; 0.1 µM): More Than Half The Wells Had A Quiescence Event Or Fpdc Readings Of 0; FPDc ([1]; 0.1 µM): More Than Half The Wells Had A Quiescence Event Or Fpdc Readings Of 0; FPDc [2, 6]: 0.0175; FPDc [2, 7]: 0.01997; FPDc [2, 8]: 0.0289; FPD measurement [2, 9]: More Than Half The Wells Had A Quiescence Event Or Fpdc Readings Of 0; FPDc [2, 9]: More Than Half The Wells Had A Quiescence Event Or Fpdc Readings Of 0; APDc [3, 6]: 43.63; FPD measurement [3, 6]: 43.63 FPDc; APDc [3, 7]: 43.37; FPD measurement [3, 7]: 43.37 FPDc; APDc [3, 8]: 124.5; FPD measurement [3, 8]: 124.5 FPDc; FPD measurement ([4]; 0.0001 µM): 1 Values Out Of 1 Were Excluded Due To Quiescence Or 0 Fpdc; FPDc ([4]; 0.0001 µM): 1 Values Out Of 1 Were Excluded Due To Quiescence Or 0 Fpdc; FPD measurement ([4]; 0.001 µM): 1 Values Out Of 1 Were Excluded Due To Quiescence Or 0 Fpdc; FPDc ([4]; 0.001 µM): 1 Values Out Of 1 Were Excluded Due To Quiescence Or 0 Fpdc; FPD measurement ([4]; 0.01 µM): 1 Values Out Of 1 Were Excluded Due To Quiescence Or 0 Fpdc; FPDc ([4]; 0.01 µM): 1 Values Out Of 1 Were Excluded Due To Quiescence Or 0 Fpdc; FPD measurement ([4]; 0.1 µM): 1 Values Out Of 1 Were Excluded Due To Quiescence Or 0 Fpdc; FPDc ([4]; 0.1 µM): 1 Values Out Of 1 Were Excluded Due To Quiescence Or 0 Fpdc; FPD measurement ([5]; 0.0001 µM): 5 Values Out Of 5 Were Excluded Due To Quiescence Or 0 Apdc; FPDc ([5]; 0.0001 µM): 68.56; FPD measurement ([5]; 0.001 µM): 5 Values Out Of 5 Were Excluded Due To Quiescence Or 0 Apdc; FPDc ([5]; 0.001 µM): 62.64; FPD measurement ([5]; 0.01 µM): 5 Values Out Of 5 Were Excluded Due To Quiescence Or 0 Apdc; FPDc ([5]; 0.01 µM): 5 Values Out Of 5 Were Excluded Due To Quiescence Or 0 Fpdc; FPD measurement ([5]; 0.1 µM): More Than Half The Wells Had A Quiescence Event Or Apdc Readings Of 0; FPDc ([5]; 0.1 µM): More Than Half The Wells Had A Quiescence Event Or Fpdc Readings Of 0

**Q.** Which results are given for COCCc1ccc(OCC(O)CNC(C)C)cc1 (stereo not drawn) [METOPROLOL]?
**A.** FPD measurement ([1]; 3.169 µM): 54.76 FPDc; FPDc ([1]; 3.169 µM): 54.76; FPD measurement ([1]; 10.01 µM): 55.07 FPDc; FPDc ([1]; 10.01 µM): 55.07; FPD measurement ([1]; 31.65 µM): 53.88 FPDc; FPDc ([1]; 31.65 µM): 53.88; FPD measurement ([1]; 100 µM): 71.03 FPDc; FPDc ([1]; 100 µM): 71.03; FPDc [2, 10]: 0.03359; FPDc [2, 11]: 0.03613; FPDc [2, 12]: 0.03258; FPD measurement [2, 13]: More Than Half The Wells Had A Quiescence Event Or Fpdc Readings Of 0; FPDc [2, 13]: More Than Half The Wells Had A Quiescence Event Or Fpdc Readings Of 0; APDc [3, 10]: 42.47; FPD measurement [3, 10]: 42.47 FPDc; APDc [3, 11]: 43.54; FPD measurement [3, 11]: 43.54 FPDc; APDc [3, 12]: 43.18; FPD measurement [3, 12]: 43.18 FPDc; APDc [3, 13]: 55.84; FPD measurement [3, 13]: 55.84 FPDc; FPD measurement ([4]; 3.169 µM): 1 Values Out Of 1 Were Excluded Due To Quiescence Or 0 Fpdc; FPDc ([4]; 3.169 µM): 1 Values Out Of 1 Were Excluded Due To Quiescence Or 0 Fpdc; FPD measurement ([4]; 10.01 µM): 1 Values Out Of 1 Were Excluded Due To Quiescence Or 0 Fpdc; FPDc ([4]; 10.01 µM): 1 Values Out Of 1 Were Excluded Due To Quiescence Or 0 Fpdc; FPD measurement ([4]; 31.65 µM): 1 Values Out Of 1 Were Excluded Due To Quiescence Or 0 Fpdc; FPDc ([4]; 31.65 µM): 1 Values Out Of 1 Were Excluded Due To Quiescence Or 0 Fpdc; FPD measurement ([4]; 100 µM): 1 Values Out Of 1 Were Excluded Due To Quiescence Or 0 Fpdc; FPDc ([4]; 100 µM): 1 Values Out Of 1 Were Excluded Due To Quiescence Or 0 Fpdc; FPDc ([5]; 3.169 µM): 61.11; FPDc ([5]; 10.01 µM): 74.38; FPDc ([5]; 31.65 µM): 72.23; FPDc ([5]; 100 µM): 68
